# Tested on: cancer cells
# Assay: Intracellular trafficking by confocal laser scanning microscopy (CLSM)
# Type: cell-based
# Conditions: 3 hr
# Source text: To monitor the intracellular trafficking of nanogel, confocal laser scanning microscopy (CLSM) was employed. […] Since only about 20% DOX could be released from nanogel under the intracellular environment (FIG. 2A), the signals should mainly represent ND nanogel. […] Due to its relatively large size, it will be impossible for it to pass the nuclear pore complex, which is about 40 nm.
compound,measurement,value
"COc1cccc2c1C(=O)c1c(O)c3c(c(O)c1C2=O)C[C@@](O)(C(=O)CO)C[C@@H]3O[C@H]1C[C@H](N)[C@H](O)[C@H](C)O1 [DOX, doxorubicin]",intracellular localisation,preferentially labels their nuclei

# Source: patent publication US9149535B2, “Polymers and the preparation of nanogel drug cocktails” (University of South Carolina, priority 2012, dated 2015)
